Reference: patent US20250368666A1, “INDAZOLE COMPOUNDS” (TYRA BIOSCIENCES, INC., priority 2022, published 2025)

Tests used:
[1] = tested on: KG-1 cell line (FGFR 1-fusion); assay: Cancer cell line cell viability assay (Cell Titer-Glo), 72 hr; assay type: cell-based; conditions: Homo sapiens, KG-1, KG-1 cell line (FGFR1-fusion)
Summary of the method: (§1)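 Intracellular ATP was measured by Cell Titer-Glo 2.0 luminescence after cells were incubated with compound dilutions (top 3 μM, 4-fold, 9 doses). Values were expressed relative to DMSO-treated cells and IC50 was calculated from a variable-slope dose-response curve.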

[2] = tested on: RT112/84 cell line (FGFR3-fusion); assay: as above; assay type: cell-based; conditions: Homo sapiens, RT112/84, RT112/84 cell line (FGFR3-fusion)
Summary of the method: as §1

[3] = tested on: KATO-III cell line (FGFR2 amplification); assay: as above; assay type: cell-based; conditions: Homo sapiens, KATO III
Summary of the method: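 5,000-20,000 cells/well o/n; cpd 9-pt 4x dil from 3 μM, n=3; 37° C/5% CO2; CTG 2.0 lumi; % DMSO ctrl; 4PL IC50.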

FGFR2 = biological target: T1, FGFR2 (Homo sapiens, UniProt P21802); assay: Kinase binding assay (kinase-tagged T7 phage, affinity beads, qPCR), Kd; conditions: read-out: FGFR2 (Kd nM)
T1 construct: made in house; host or cells: E. coli (BL21-derived), T7 phage
T1 sequence (P21802 22-821): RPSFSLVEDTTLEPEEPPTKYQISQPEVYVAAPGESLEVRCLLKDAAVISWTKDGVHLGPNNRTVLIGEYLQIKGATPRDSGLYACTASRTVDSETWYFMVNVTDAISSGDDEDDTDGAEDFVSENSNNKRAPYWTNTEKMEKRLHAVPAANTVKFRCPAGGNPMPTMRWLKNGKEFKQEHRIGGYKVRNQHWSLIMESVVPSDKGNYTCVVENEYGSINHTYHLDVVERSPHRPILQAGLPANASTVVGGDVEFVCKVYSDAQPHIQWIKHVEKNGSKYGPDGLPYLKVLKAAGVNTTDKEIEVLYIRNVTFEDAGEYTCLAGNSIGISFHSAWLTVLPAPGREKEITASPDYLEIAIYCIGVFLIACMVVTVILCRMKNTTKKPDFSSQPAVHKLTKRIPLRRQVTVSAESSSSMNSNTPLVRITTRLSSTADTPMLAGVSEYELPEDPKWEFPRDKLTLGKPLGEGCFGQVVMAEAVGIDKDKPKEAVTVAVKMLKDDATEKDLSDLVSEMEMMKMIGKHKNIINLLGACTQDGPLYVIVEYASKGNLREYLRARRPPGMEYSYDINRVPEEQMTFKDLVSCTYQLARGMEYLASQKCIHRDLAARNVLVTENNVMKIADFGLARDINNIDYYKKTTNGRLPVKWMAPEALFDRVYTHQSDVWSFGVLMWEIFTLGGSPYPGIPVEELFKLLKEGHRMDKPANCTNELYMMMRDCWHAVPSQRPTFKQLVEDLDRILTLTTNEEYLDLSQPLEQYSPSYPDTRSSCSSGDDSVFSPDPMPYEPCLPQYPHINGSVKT
Summary of the method: (§2)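 Competition binding; kinase-tagged T7 phage lysate vs immobilised biotinylated ligand on streptavidin beads, 0.9% DMSO final. 11-pt 3-fold dilutions, 3 DMSO controls. qPCR of eluted kinase; Kd by Hill fit, slope −1.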

FGFR1 = biological target: T2, FGFR1 (Homo sapiens, UniProt P11362); assay: as above; conditions: read-out: FGFR1 (Kd nM)
T2 construct: made in house; host or cells: E. coli (BL21-derived), T7 phage
T2 sequence (P11362 22-822): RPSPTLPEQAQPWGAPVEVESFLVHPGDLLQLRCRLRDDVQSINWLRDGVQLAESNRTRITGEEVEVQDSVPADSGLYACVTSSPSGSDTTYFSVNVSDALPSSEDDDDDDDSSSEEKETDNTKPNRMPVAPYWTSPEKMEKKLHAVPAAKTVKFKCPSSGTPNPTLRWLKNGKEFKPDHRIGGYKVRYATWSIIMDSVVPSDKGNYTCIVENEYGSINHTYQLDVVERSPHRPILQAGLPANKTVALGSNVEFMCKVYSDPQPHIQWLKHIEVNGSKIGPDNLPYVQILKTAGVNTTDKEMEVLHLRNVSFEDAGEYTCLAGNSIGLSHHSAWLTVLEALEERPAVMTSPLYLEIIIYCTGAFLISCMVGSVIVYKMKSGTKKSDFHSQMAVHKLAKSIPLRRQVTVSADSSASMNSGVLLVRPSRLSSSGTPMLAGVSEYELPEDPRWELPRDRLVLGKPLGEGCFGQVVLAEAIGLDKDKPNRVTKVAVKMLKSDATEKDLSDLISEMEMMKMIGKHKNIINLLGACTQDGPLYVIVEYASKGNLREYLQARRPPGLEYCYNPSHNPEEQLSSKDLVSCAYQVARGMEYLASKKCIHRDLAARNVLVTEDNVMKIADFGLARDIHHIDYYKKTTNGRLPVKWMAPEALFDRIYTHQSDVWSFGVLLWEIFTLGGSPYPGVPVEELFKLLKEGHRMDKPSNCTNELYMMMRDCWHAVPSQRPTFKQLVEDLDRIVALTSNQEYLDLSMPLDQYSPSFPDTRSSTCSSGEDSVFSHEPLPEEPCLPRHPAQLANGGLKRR
Summary of the method: as §2

FGFR3 = biological target: T3, FGFR3 (Homo sapiens, UniProt P22607); assay: as above; conditions: read-out: FGFR3 (Kd nM)
T3 construct: made in house; host or cells: E. coli (BL21-derived), T7 phage
T3 sequence (P22607 23-806): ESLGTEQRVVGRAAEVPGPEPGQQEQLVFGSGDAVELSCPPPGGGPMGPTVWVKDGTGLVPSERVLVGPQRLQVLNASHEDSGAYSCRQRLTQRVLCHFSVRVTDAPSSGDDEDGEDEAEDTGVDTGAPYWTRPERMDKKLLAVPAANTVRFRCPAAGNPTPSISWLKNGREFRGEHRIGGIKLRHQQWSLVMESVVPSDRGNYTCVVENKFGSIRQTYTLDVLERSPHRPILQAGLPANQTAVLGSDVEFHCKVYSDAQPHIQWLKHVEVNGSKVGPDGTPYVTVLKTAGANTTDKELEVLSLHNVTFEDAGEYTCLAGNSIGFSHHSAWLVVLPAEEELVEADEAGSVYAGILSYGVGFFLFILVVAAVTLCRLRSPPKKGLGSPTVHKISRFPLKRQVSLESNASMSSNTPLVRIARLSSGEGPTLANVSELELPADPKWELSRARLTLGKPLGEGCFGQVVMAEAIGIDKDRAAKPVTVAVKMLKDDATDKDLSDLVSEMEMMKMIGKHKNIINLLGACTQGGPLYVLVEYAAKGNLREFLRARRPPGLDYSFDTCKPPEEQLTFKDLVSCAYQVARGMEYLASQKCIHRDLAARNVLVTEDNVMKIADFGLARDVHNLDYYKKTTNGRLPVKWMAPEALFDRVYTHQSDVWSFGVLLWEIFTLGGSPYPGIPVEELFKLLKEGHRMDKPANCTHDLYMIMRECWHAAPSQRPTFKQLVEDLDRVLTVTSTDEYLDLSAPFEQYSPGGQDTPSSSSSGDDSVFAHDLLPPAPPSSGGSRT
Summary of the method: as §2

FGFR3 (V555M) = biological target: T4, FGFR3 (V555M) (Homo sapiens, UniProt P22607, V555M); assay: as above; conditions: V555M mutant; read-out: FGFR3 (V555M) (Kd nM)
T4 construct: made in house; host or cells: E. coli (BL21-derived), T7 phage
T4 sequence (P22607 23-806 V555M): as the sequence (P22607 23-806) above, with V533M counted along it
Summary of the method: as §2

FGFR4 = biological target: T5, FGFR4 (Homo sapiens, UniProt P22455); assay: as above; conditions: read-out: FGFR4 (Kd nM)
T5 construct: made in house; host or cells: E. coli (BL21-derived), T7 phage
T5 sequence (P22455 22-802): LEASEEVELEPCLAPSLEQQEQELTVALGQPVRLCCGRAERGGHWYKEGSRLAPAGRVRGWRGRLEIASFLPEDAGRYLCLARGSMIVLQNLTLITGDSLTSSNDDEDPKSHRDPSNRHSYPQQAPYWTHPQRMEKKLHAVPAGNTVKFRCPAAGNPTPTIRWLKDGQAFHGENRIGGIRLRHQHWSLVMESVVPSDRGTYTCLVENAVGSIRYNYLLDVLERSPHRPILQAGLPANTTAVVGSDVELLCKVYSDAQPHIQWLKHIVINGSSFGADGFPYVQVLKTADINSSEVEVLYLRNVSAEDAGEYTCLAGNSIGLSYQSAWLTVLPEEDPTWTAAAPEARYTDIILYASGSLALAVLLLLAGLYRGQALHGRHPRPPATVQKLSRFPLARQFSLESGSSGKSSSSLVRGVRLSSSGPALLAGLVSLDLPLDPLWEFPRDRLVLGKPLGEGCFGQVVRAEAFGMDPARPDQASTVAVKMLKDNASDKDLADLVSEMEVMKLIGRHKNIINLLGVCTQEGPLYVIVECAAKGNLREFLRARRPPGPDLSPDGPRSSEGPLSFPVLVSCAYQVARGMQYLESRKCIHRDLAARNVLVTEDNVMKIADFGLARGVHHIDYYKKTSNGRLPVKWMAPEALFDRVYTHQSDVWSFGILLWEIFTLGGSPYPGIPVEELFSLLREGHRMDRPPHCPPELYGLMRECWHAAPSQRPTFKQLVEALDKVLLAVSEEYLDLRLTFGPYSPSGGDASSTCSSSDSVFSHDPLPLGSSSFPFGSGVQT
Summary of the method: as §2

[4] = tested on: HuH7 cell line (FGF19 amplification); assay: Cancer cell line cell viability assay (Cell Titer-Glo), 120 hr; assay type: cell-based; conditions: Homo sapiens, Huh-7
Summary of the method: as §1

| SMILES | IC50 [1] | IC50 [2] | IC50 [3] | Kd (FGFR2) | Kd (FGFR1) | Kd (FGFR3) | Kd (FGFR3 (V555M)) | Kd (FGFR4) | IC50 [4] |
| --- | --- | --- | --- | --- | --- | --- | --- | --- | --- |
| COCCNC1(C)CN(c2ncc(-c3n[nH]c4ccc(O[C@H](C)c5c(Cl)cncc5Cl)cc34)cc2C#N)C1 [Example 88, (R)-5-(5-(1-(3,5-dichloropyridin-4-yl)ethoxy)-1H-indazol-3-yl)-2-(3-((2-methoxyethyl)amino)-3-methylazetidin-1-yl)nicotinonitrile] | 200 to 1000 nM | 50 to 200 nM | 50 to 200 nM | 50 to 300 nM | 1 to 50 nM | 1 to 50 nM | 1 to 50 nM | 1 to 50 nM | 0.1 to 50 nM |
| CC(C)OCCNC1(C)CN(c2ncc(-c3n[nH]c4ccc(O[C@H](C)c5c(Cl)cncc5Cl)cc34)cc2C#N)C1 [Example 98, (R)-5-(5-(1-(3,5-dichloropyridin-4-yl)ethoxy)-1H-indazol-3-yl)-2-(3-((2-isopropoxyethyl)amino)-3-methylazetidin-1-yl)nicotinonitrile] | 200 to 1000 nM | 50 to 200 nM | 200 to 1000 nM | 50 to 300 nM | 50 to 300 nM | 1 to 50 nM | 1 to 50 nM | 1 to 50 nM | 50 to 200 nM |
| COc1cc2[nH]nc(-c3cnc(N4CC(C)(N5CC(C)(O)C5)C4)c(C#N)c3)c2cc1O[C@H](C)c1c(Cl)cncc1Cl [Example 99, (R)-5-(5-(1-(3,5-dichloropyridin-4-yl)ethoxy)-6-methoxy-1H-indazol-3-yl)-2-(3-hydroxy-3,3′-dimethyl-[1,3′-biazetidin]-1′-yl)nicotinonitrile] | 0.1 to 50 nM | 0.1 to 50 nM | 0.1 to 50 nM | 1 to 50 nM | 1 to 50 nM | 1 to 50 nM | 1 to 50 nM | 1 to 50 nM | 0.1 to 50 nM |
| C[C@@H](Oc1ccc2[nH]nc(-c3cnc(N4CC(C)(N5CC(C)(O)C5)C4)c(C#N)c3)c2c1)c1c(Cl)cncc1Cl [Example 100, (R)-5-(5-(1-(3,5-dichloropyridin-4-yl)ethoxy)-1H-indazol-3-yl)-2-(3-hydroxy-3,3′-dimethyl-[1,3′-biazetidin]-1′-yl)nicotinonitrile] | 50 to 200 nM | 0.1 to 50 nM | 50 to 200 nM | 1 to 50 nM | 1 to 50 nM | 1 to 50 nM | 1 to 50 nM | 1 to 50 nM | 0.1 to 50 nM |
| COc1cc2[nH]nc(-c3cnc(N4CC(C)(N5CC(C)(OC)C5)C4)c(C#N)c3)c2cc1O[C@H](C)c1c(Cl)cncc1Cl [Example 101, (R)-5-(5-(1-(3,5-dichloropyridin-4-yl)ethoxy)-6-methoxy-1H-indazol-3-yl)-2-(3-methoxy-3,3′-dimethyl-[1,3′-biazetidin]-1′-yl)nicotinonitrile] | 50 to 200 nM | 0.1 to 50 nM | 0.1 to 50 nM | 1 to 50 nM | 1 to 50 nM | 1 to 50 nM | 1 to 50 nM | 1 to 50 nM | 0.1 to 50 nM |
| COC1(C)CN(C2(C)CN(c3ncc(-c4n[nH]c5ccc(O[C@H](C)c6c(Cl)cncc6Cl)cc45)cc3C#N)C2)C1 [Example 102, (R)-5-(5-(1-(3,5-dichloropyridin-4-yl)ethoxy)-1H-indazol-3-yl)-2-(3-methoxy-3,3′-dimethyl-[1,3′-biazetidin]-1′-yl)nicotinonitrile] | 200 to 1000 nM | 50 to 200 nM | 200 to 1000 nM | 1 to 50 nM | 1 to 50 nM | 1 to 50 nM | 1 to 50 nM | 1 to 50 nM | 0.1 to 50 nM |
| COc1cc2[nH]nc(-c3cnc(N4CC(C)(NCC5(O)CC5)C4)c(C#N)c3)c2cc1O[C@H](C)c1c(Cl)cncc1Cl [Example 105] | 50 to 200 nM | 0.1 to 50 nM | 50 to 200 nM | 1 to 50 nM | 1 to 50 nM | 1 to 50 nM | 1 to 50 nM | 1 to 50 nM | 0.1 to 50 nM |
| C[C@@H](Oc1ccc2[nH]nc(-c3cnc(N4CC(C)(CN5CCOCC5)C4)c(C#N)c3)c2c1)c1c(Cl)cncc1Cl [Example 122, (R)-5-(5-(1-(3,5-dichloropyridin-4-yl)ethoxy)-1H-indazol-3-yl)-2-(3-methyl-3-(morpholinomethyl)aze-tidin-1-yl)nicotinonitrile] | 200 to 1000 nM | 50 to 200 nM | 200 to 1000 nM | 50 to 300 nM | 50 to 300 nM | 1 to 50 nM | 1 to 50 nM | 1 to 50 nM | 50 to 200 nM |
| C[C@@H](Oc1ccc2[nH]nc(-c3cnc(N4CC(C)(CN5CCCC5)C4)c(C#N)c3)c2c1)c1c(Cl)cncc1Cl [Example 123, (R)-5-(5-(1-(3,5-dichloropyridin-4-yl)ethoxy)-1H-indazol-3-yl)-2-(3-methyl-3-(pyrrolidin-1-ylmethyl)azetidin-1-yl)nicotinonitrile] | 200 to 1000 nM | 50 to 200 nM | 200 to 1000 nM | 1 to 50 nM | 50 to 300 nM | 1 to 50 nM | 1 to 50 nM | 1 to 50 nM | 0.1 to 50 nM |
| CC(C)NCC1(C)CN(c2ncc(-c3n[nH]c4ccc(O[C@H](C)c5c(Cl)cncc5Cl)cc34)cc2C#N)C1 [Example 133, 5-[5-[(1R)-1-(3,5-dichloro-4-pyridyl)ethoxy]-1H-indazol-3-yl]-2-[3-[(isopropylamino)meth-yl]-3-methyl-azetidin-1-yl]pyridine-3-carbonitrile] | 50 to 200 nM | 50 to 200 nM | 200 to 1000 nM | 50 to 300 nM | 1 to 50 nM | 1 to 50 nM | 1 to 50 nM | 1 to 50 nM | 200 to 1000 nM |
| C[C@@H](Oc1cc2c(-c3cnc(N4CC(C)(NCC5CC5)C4)c(C#N)c3)n[nH]c2cc1F)c1c(Cl)cncc1Cl [Example 134, (R)-2-(3-((cyclopropylmethyl)a-mino)-3-methylazetidin-1-yl)-5-(5-(1-(3,5-dichloropyridin-4-yl)ethoxy)-6-fluoro-1H-indazol-3-yl)nicotinonitrile] | 200 to 1000 nM | 50 to 200 nM | 200 to 1000 nM | 50 to 300 nM | 50 to 300 nM | 1 to 50 nM | 1 to 50 nM | 1 to 50 nM | 50 to 200 nM |
| C[C@@H](Oc1cc2c(-c3cnc(N4CC(C)(N5CCCC5)C4)c(C#N)c3)n[nH]c2cc1F)c1c(Cl)cncc1Cl [Example 135, (R)-5-(5-(1-(3,5-dichloropyridin-4-yl)ethoxy)-6-fluoro-1H-indazol-3-yl)-2-(3-methyl-3-(pyrrolidin-1-yl)azetidin-1-yl)nicotinonitrile] | 200 to 1000 nM | 50 to 200 nM | 200 to 1000 nM | 1 to 50 nM | 50 to 300 nM | 1 to 50 nM | 1 to 50 nM | 1 to 50 nM | 50 to 200 nM |
| COc1cc2[nH]nc(-c3cnc(N4CC(C)(NCC(C)C)C4)c(C#N)c3)c2cc1O[C@H](C)c1c(Cl)cncc1Cl [Example 139, (R)-5-(5-(1-(3,5-dichloropyridin-4-yl)ethoxy)-6-methoxy-1H-indazol-3-yl)-2-(3-(isobutylamino)-3-methylazetidin-1-yl)nicotinonitrile] | 50 to 200 nM | 0.1 to 50 nM | 50 to 200 nM | 1 to 50 nM | 1 to 50 nM | 1 to 50 nM | 1 to 50 nM | 1 to 50 nM | 0.1 to 50 nM |
| COc1cc2[nH]nc(-c3cnc(N4CC(C)(N)C4)c(C#N)c3)c2cc1O[C@H](C)c1c(Cl)cncc1Cl [Example 143, 2-(3-amino-3-methyl-azetidin-1-yl)-5-[5-[(1R)-1-(3,5-dichloro-4-pyridyl)ethoxy]-6-methoxy-1H-indazol-3-yl]pyridine-3-carbonitrile] | 50 to 200 nM | 0.1 to 50 nM | 50 to 200 nM | 1 to 50 nM | 1 to 50 nM | 1 to 50 nM | 1 to 50 nM | 1 to 50 nM | 0.1 to 50 nM |
| CC[C@H](C)NC1(C)CN(c2ncc(-c3n[nH]c4cc(OC)c(O[C@H](C)c5c(Cl)cncc5Cl)cc34)cc2C#N)C1 [Example 144, 5-[5-[(1R)-1-(3,5-dichloro-4-pyridyl)ethoxy]-6-methoxy-1H-indazol-3-yl]-2-[3-methyl-3-[[(1S)-1-methylpropyl]amino]aze-tidin-1-yl]pyridine-3-carbonitrile] | 50 to 200 nM | 0.1 to 50 nM | 50 to 200 nM | 1 to 50 nM | 1 to 50 nM | 1 to 50 nM | 1 to 50 nM | 1 to 50 nM | 0.1 to 50 nM |
